# Several values for one entry are separate records, joined by “and”; a condition that tells them apart may be missing. Equal values may be shown once.
# What was measured:
# [1] = system: LTB4; experiment: Study DG-031-201: ionomycin-induced LTB4 production in whole blood ex vivo; set-up: species or system human; conditions: for LTB4 production, percent change: Study 201
# Experimental: (§1) Genet. 2004). Apart from FLAP, allele A of the SNP SG12S25 in the LTA4 hydrolase gene, another gene in the LT pathway, is also associated with MI, as described in PCT application no. PCT/US03/32556 and PCT/US04/30582 incorporated by reference.
# (§2) Patients who met the study eligibility criteria were enrolled and randomized into 3 different dose-level groups: (1) 64 patients on 250 mg/day therapy with DG-031 (250 mg q.d.), vs placebo; (2) 64 patients on 500 mg/day therapy with DG-031 (250 mg b.i.d.) vs placebo; and (3) 63 patients on 750 mg/day therapy with DG-031 (250 mg t.i.d.) vs placebo. […] All patients received 3 tablets per day. Treatment periods, 4 weeks in duration each, were separated by a 2-week washout period. The placebo tablets were identical in shape, color, form and taste to the active tablets except that they contained no active drug ingredients. Treatment with DG-031 or placebo was in addition to the subject's standard care, including all medications and treatment plan as prescribed by the subject's cardiologist prior to enrolment. A total of 191 subjects were enrolled, with 172 completing all 8 visits or 8 patients short of the target of 180 patients.
# The primary objective was to determine whether the FLAP inhibitor has a statistically significant effect, compared to placebo, on one or more biomarkers of MI risk, including: (1) ionomycin-induced LTB4 and MPO release by neutrophils ex vivo; (2) MPO, CRP, N-tyrosine, Lp-PLA2 or amyloid A in serum, or (3) LTE4 in urine. The secondary objective was to determine whether the effect of DG-031 was dose-dependent. The tertiary objective was to assess other biomarkers (See Results). Evaluation of safety and tolerability of the drug was also a primary endpoint.
# All data were analyzed according to a pre-established statistical analysis plan (SAP) and by intention-to-treat (ITT). Each arm of the study, as well as pooled sets (combining dose levels), was considered for the primary analysis. Each such set is an AB/BA cross-over design and in the primary analysis of efficacy, the levels of biomarkers of MI risk at the end of the treatment periods (visits 4 and 7) were used as primary response variables. The difference between DG-031 and placebo treatment was the primary outcome, assessed separately for each of the biomarkers. Treatment effect was tested using a two-sample t-test on the period differences for suitably transformed response variables, under an assumption of normality of the transformed data. We report treatment effect as one half of the observed mean differences in the two-sample t-test, with a 95% CI. No pre-tests for carry-over effect were performed as a part of the primary analysis. Tests for carry-over were done and are reported separately from results of primary analysis. All hypotheses were tested at a two-sided nominal significance level of 0.05 and p-values based on t-tests are reported. In addition, for the primary efficacy endpoints where the effects of the two highest doses on 10 primary variables were studied, a randomization test was performed which corrects for multiple testing and ensures that the key results are not affected by distributional concerns. In particular, 1 million permutations of the patients into the different study tracks were performed, generating a reference distribution for the maximum of the 10 t-statistics of the biomarkers under the null hypothesis of no drug effect. […]
# [2] = system: Lp-PLA2; experiment: Study DG-031-201: Lp-PLA2; assay type: in vivo, human; conditions: 2 lower doses (250 mg/day and 500 mg/day)
# Experimental: as §1
# as §2, with “A total of 191 subjects were enrolled, with 172 completing all 8 visits or 8 patients short of the target of 180 patients.” left out
# (§3) All data were analyzed according to a pre-established statistical analysis plan (SAP) and by intention-to-treat (ITT). […] The difference between DG-031 and placebo treatment was the primary outcome, assessed separately for each of the biomarkers. […]
# [3] = system: LDL cholesterol; experiment: Study DG-031-201: LDL cholesterol; assay type: in vivo, human; conditions: highest dose of DG-031
# Experimental: as §2
# as §3, with “(ITT). Each arm of the study, as well as pooled sets (combining dose levels), was considered for the primary analysis.” for “(ITT).”
# [4] = Study DG-031-204: liver function tests (AST, ALT, GGT); assay type: in vivo, human; conditions: 500 mg BID or TID
# Experimental: An additional single site, open label study was carried out to obtain biomarker and safety data on additional DG-031 doses (i.e., 1000 mg and 1500 mg). This study examined the safety, tolerability and dose-related effects of DG-031 on inflammatory biomarkers including: LTB4, hsCRP, and MPO. A total of 119 patients with a prior history of CAD and MI were randomized to receive either 1000 mg DG-031 (500 mg BID) or 1500 mg DG-031 (500 mg TID) daily for 4-6 weeks. Treatment with DG-031 in addition to the subject's standard care, medication, and treatment, was prescribed by the patient's cardiologist. A majority of the subjects received statin therapy before, during and after the study. Follow-up assessments were performed 2 weeks after the end of study drug administration.
# Liver function tests (AST, ALT, GGT) were assessed weekly during study drug administration and two weeks after dosing. […] Serum creatinine (Cr) was measured weekly during study drug administration and two weeks after dosing. In both the 500 mg BID and 500 mg TID treatment groups, mean serum Cr concentrations increased 4-5% relative to baseline levels. At the 2-week follow up visit, mean serum Cr returned to baseline in the cohort treated for 4 weeks, but remained elevated in the group treated for 6 weeks. Creatine kinase (CK) measurements were obtained weekly during study drug administration and two weeks after dosing.
compound,measurement,setting,value
"O=C(O)[C@@H](c1ccc(OCc2ccc3ccccc3n2)cc1)C1CCCC1 [DG-031, (R)-(+)-alpha-cyclopentyl-4-(2-quinolinylmethoxy)-Benzeneacetic acid]","LTB4 production, percent change",[1]; 250 mg BID,−18%
same,"LTB4 production, percent change",[1]; 250 mg QD,−13%
same,"LTB4 production, percent change",[1]; 250 mg TID,−34% (St. 201) and −34% (−201)
same,Reduction of capacity for LTB4 production,"[1]; 250 mg TID, at steady state Cmin",30%
same,"Carry-over effect, LTB4 in whole blood, corr. for wbc","[1]; difference visit 2 to 5, 500 and 750 mg/day vs placebo",−0.10
same,Effects on Lp-PLA2,[2],not significant
same,Increase in LDL cholesterol,[3],8%
same,"Mean liver function tests (AST, ALT, GGT)",[4],No adverse trends
